Read-outs that look alike come from different tables or passages of the source.
Experiments:
MALT1 = target: T1, MALT1 (Homo sapiens, UniProt Q9UDY8); experiment: MALT-1 Fluorogenic Peptide Cleavage Assay (MALT1 inhibition assay); format: biochemical; conditions: Avi-tagged FL MALT-1, Ac-LRSR-AMC peptide substrate, 30 min pre-incubation, 90 min reaction
T1 construct: Avi-tagged FL MALT-1 (Pharmaron, stored at −70° C.); Avi tag
T1 sequence (Q9UDY8 1-824): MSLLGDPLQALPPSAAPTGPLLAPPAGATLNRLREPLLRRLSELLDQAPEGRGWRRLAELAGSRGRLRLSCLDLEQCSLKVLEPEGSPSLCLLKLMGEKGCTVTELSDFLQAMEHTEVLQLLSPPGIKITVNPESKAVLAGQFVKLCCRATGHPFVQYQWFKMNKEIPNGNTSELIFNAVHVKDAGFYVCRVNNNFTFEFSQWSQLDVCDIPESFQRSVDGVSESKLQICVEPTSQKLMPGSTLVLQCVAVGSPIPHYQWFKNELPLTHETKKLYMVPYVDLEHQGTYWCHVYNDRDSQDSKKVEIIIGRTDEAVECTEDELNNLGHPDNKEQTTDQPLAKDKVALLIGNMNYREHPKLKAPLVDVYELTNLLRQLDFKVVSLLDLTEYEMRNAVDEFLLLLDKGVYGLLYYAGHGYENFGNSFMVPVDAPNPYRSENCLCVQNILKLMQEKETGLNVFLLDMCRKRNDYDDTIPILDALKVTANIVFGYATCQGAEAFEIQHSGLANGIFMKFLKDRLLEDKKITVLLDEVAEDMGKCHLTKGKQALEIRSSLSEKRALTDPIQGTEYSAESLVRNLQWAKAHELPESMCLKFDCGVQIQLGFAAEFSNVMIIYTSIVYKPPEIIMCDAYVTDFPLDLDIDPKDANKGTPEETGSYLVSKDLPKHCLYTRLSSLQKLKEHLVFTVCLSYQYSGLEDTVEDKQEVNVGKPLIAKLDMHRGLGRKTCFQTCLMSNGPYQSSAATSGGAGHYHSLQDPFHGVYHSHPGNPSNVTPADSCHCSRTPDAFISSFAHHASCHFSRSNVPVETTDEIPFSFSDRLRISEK
Outline: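 IC50 from sigmoidal fits of % inhibition, with fluorescence (ex 342, em 441 nm) from AMC released from the quenched LRSR peptide after 90 min at room temperature. Full-length Avi-tagged MALT1 saw compound for 30 min first; final DMSO 2%.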

NF-kB = NF-kB reporter assay in Jurkat cells stimulated with aCD3/aCD28/PMA; format: cell-based; conditions: Homo sapiens, Jurkat, read-out: NF-kB Reporter Assay IC50
Outline: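 Stimulation used final aCD3 5 μg/mL, aCD28 5 μg/mL and PMA 0.03 μg/mL for 4 hr at 37° C, after 1 hr compound pretreatment of 25,000 serum-starved Jurkat cells per well. One-Glo luminescence gave IC50 values.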

[1] = Jurkat cells, 1 hr compound incubation, aCD3/aCD28/PMA stimulation 4 hr, One-Glo readout

Structure (SMILES)	IC50 (MALT1)	IC50 (NF-kB; [1])	IC50 (NF-kB)
CN(C)c1ncccc1-c1ccc(S(=O)(=O)Nc2cccc3cnn(C)c23)cn1 [Example I-221, 2′-(Dimethylamino)-N-(1-Methyl-1H-Indazol-7-yl)-[2,3′-Bipyridine]-5-Sulfonamide]	> 2.5 µM	–	1 to 2.5 µM
COc1ccc2cnn(C)c2c1NS(=O)(=O)c1ccc(N2CCOC2=O)nc1 [Example I-222, N-(6-Methoxy-1-Methyl-1H-Indazol-7-yl)-6-(2-Oxooxazolidin-3-yl)Pyridine-3-Sulfonamide]	> 2.5 µM	< 0.4 µM	–
COc1ccc2cnn(C)c2c1NS(=O)(=O)c1ccc(N2CC(C)(C)OC2=O)nc1 [Example I-223, 6-(5,5-Dimethyl-2-Oxooxazolidin-3-yl)-N-(6-Methoxy-1-Methyl-1H-Indazol-7-yl)Pyridine-3-Sulfonamide]	> 2.5 µM	< 0.4 µM	–
Cn1ncc2cccc(NS(=O)(=O)c3ccc(N4CC(C)(C)OC4=O)nc3)c21 [Example I-224, 6-(5,5-Dimethyl-2-Oxooxazolidin-3-yl)-N-(1-Methyl-1H-Indazol-7-yl)Pyridine-3-Sulfonamide]	> 2.5 µM	< 0.4 µM	–
COc1ccc2cnn(C)c2c1NS(=O)(=O)c1ccc(N2CCN(C)C2=O)nc1 [Example I-225, N-(6-Methoxy-1-Methyl-1H-Indazol-7-yl)-6-(3-Methyl-2-Oxoimidazolidin-1-yl)Pyridine-3-Sulfonamide]	0.4 to 1 µM	< 0.4 µM	–
Cn1ncc2cccc(NS(=O)(=O)c3ccc(-n4ncc5c4CCCC5)nc3)c21 [Example I-227, N-(1-Methyl-1H-Indazol-7-yl)-6-(4,5,6,7-Tetrahydro-1H-Indazol-1-yl)Pyridine-3-Sulfonamide]	1 to 2.5 µM	< 0.4 µM	–
[2H]C([2H])([2H])n1ncc2ccc(OC)c(NS(=O)(=O)c3ccc(-n4cc(C5CC5)cn4)nc3)c21 [Example I-229, 6-(4-Cyclopropyl-1H-Pyrazol-1-yl)-N-(6-Methoxy-1-(Methyl-D3)-1H-Indazol-7-yl)Pyridine-3-Sulfonamide]	< 0.4 µM	< 0.4 µM	–
Cn1ncc2cccc(NS(=O)(=O)c3ccc(N4CCOC4=O)nc3)c21 [Example I-230, N-(1-Methyl-1H-Indazol-7-yl)-6-(2-Oxooxazolidin-3-yl)Pyridine-3-Sulfonamide]	> 2.5 µM	> 2.5 µM	–
COCCn1ncc2cccc(NS(=O)(=O)c3ccc(-n4nccc4C(C)C)nc3)c21 [Example I-232, 6-(5-isopropyl-1H-pyrazol-1-yl)-N-(1-(2-methoxyethyl)-1H-indazol-7-yl)pyridine-3-sulfonamide]	> 2.5 µM	> 2.5 µM	–
Cn1ncc2cccc(NS(=O)(=O)c3ccc(-n4cc5c(n4)CCCC5)nc3)c21 [Example I-233, N-(1-methyl-1H-indazol-7-yl)-6-(4,5,6,7-tetrahydro-2H-indazol-2-yl)pyridine-3-sulfonamide]	0.4 to 1 µM	< 0.4 µM	–

Continued, in another order:

IC50 (MALT1)	IC50 (NF-kB; [1])	Structure (SMILES)	IC50 (NF-kB)
> 2.5 µM	0.4 to 1 µM	Cn1ncc2cccc(NS(=O)(=O)c3ccc(-c4cccnc4Cl)nc3)c21 [Example I-220, 2′-Chloro-N-(1-Methyl-1H-Indazol-7-yl)-[2,3′-Bipyridine]-5-Sulfonamide]	–
> 2.5 µM	< 0.4 µM	CN1CCN(c2ccc(S(=O)(=O)Nc3cccc4cnn(C)c34)cn2)C1=O [Example I-226, N-(1-Methyl-1H-Indazol-7-yl)-6-(3-Methyl-2-Oxoimidazolidin-1-yl)Pyridine-3-Sulfonamide]	–
1 to 2.5 µM	< 0.4 µM	Cn1cc(-c2ccc(S(=O)(=O)Nc3cccc4cnn(C)c34)cn2)nc1C(F)(F)F [Example I-228, N-(1-Methyl-1H-Indazol-7-yl)-6-(1-Methyl-2-(Trifluoromethyl)-1H-Imidazol-4-yl)Pyridine-3-Sulfonamide]	–
> 2.5 µM	> 2.5 µM	COCCn1ncc2cccc(NS(=O)(=O)c3ccc(-n4ccc(C5CC5)n4)nc3)c21 [Example I-231, 6-(3-Cyclopropyl-1H-Pyrazol-1-yl)-N-(1-(2-Methoxyethyl)-1H-Indazol-7-yl)Pyridine-3-Sulfonamide]	–

Source: patent US20240150365A1 (Hotspot Therapeutics, Inc., priority 2022, published 2024)
